Results reported in ChEMBL document CHEMBL1201862, “PubChem BioAssay data set” (2004).
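Following 48 hours of exposure in 96-well plates, responses at five concentrations were used to interpolate endpoints linearly. GI50 marks 50% less growth.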 Active and inactive are the calls of the source. No stated cut-off is given here; in the data, active = GI50 up to about 1.1 µM and inactive = higher.

How the values were obtained:
Assay in all cases: growth of human tumour cells (NCI), 48 h
[1] = system: 786-0
[2] = system: A498
[3] = system: A549
[4] = system: ACHN
[5] = system: BT-549
[6] = system: CAKI-1
[7] = system: CCRF-CEM
[8] = system: COLO 205
[9] = system: DU-145
[10] = system: EKVX
[11] = system: HCC 2998
[12] = system: HCT-116
[13] = system: HCT-15
[14] = system: HL-60
[15] = system: HOP-62
[16] = system: HOP-92
[17] = system: HT-29
[18] = system: Hs-578T
[19] = system: IGROV-1
[20] = system: K562
[21] = system: KM12
[22] = system: LOX IMVI
[23] = system: M14
[24] = system: MCF7
[25] = system: MDA-MB-231
[26] = system: MDA-MB-435
[27] = system: MDA-N
[28] = system: MOLT-4
[29] = system: Malme-3M
[30] = system: NCI-H226
[31] = system: NCI-H23
[32] = system: NCI-H460
[33] = system: NCI-H522
[34] = system: NCI/ADR-RES
[35] = system: OVCAR-3
[36] = system: OVCAR-4
[37] = system: OVCAR-5
[38] = system: OVCAR-8
[39] = system: PC-3
[40] = system: RPMI-8226
[41] = system: RXF 393
[42] = system: SF-268
[43] = system: SF-295
[44] = system: SF-539
[45] = system: SK-MEL-28
[46] = system: SK-MEL-2
[47] = system: SK-MEL-5
[48] = system: SK-OV-3
[49] = system: SN12C
[50] = system: SNB-19
[51] = system: SNB-75
[52] = system: SR
[53] = system: SW-620
[54] = system: T47D
[55] = system: TK-10
[56] = system: U-251
[57] = system: UACC-257
[58] = system: UACC-62
[59] = system: UO-31

With `Cn1c(CC(O)c2nc3ccccc3n2C)nc2ccccc21` (stereo not drawn) as the molecule, how does the GI50 [1] read?
Its GI50 is > 44.6 µM (inactive).

And the GI50 [2]?
The GI50 was > 32.9 µM (inactive).

And the GI50 [3]?
Its GI50 is > 56.6 µM (inactive).

What about the GI50 [4] of the same molecule?
Its GI50 is > 23.6 µM (inactive).

What about the GI50 [5] of the same molecule?
Its GI50 is > 34.4 µM (inactive).

What about the GI50 [6] of the same molecule?
Its GI50 is > 100 µM (inactive).

What about the GI50 [7] of the same molecule?
Its GI50 is 2.65 µM (inactive).

What about the GI50 [8] of the same molecule?
Its GI50 is > 28.4 µM (inactive).

What about the GI50 [9] of the same molecule?
The GI50 was > 14.6 µM (inactive).

And the GI50 [10]?
The GI50 was > 100 µM (inactive).

And the GI50 [11]?
The GI50 was > 100 µM (inactive).

And the GI50 [12]?
Its GI50 is > 23.7 µM (inactive).

And the GI50 [13]?
The GI50 was over 16 µM.

What about the GI50 [14] of the same molecule?
Its GI50 is 0.413 µM (active).

What about the GI50 [15] of the same molecule?
The GI50 was > 12.3 µM (inactive).

And the GI50 [16]?
The GI50 was > 24.4 µM (inactive).

What about the GI50 [17] of the same molecule?
Its GI50 is > 32.8 µM (inactive).

And the GI50 [18]?
Its GI50 is > 14.5 µM (inactive).

And the GI50 [19]?
Its GI50 is > 17.4 µM (inactive).

And the GI50 [20]?
The GI50 was > 9.51 µM (inactive).

What about the GI50 [21] of the same molecule?
The GI50 was > 100 µM (inactive).

And the GI50 [22]?
The GI50 was > 28.8 µM (inactive).

What about the GI50 [23] of the same molecule?
Its GI50 is > 29.2 µM (inactive).

What about the GI50 [24] of the same molecule?
The GI50 was > 15.9 µM (inactive).

And the GI50 [25]?
Its GI50 is > 34.8 µM (inactive).

And the GI50 [26]?
The GI50 was > 18.5 µM (inactive).

And the GI50 [27]?
The GI50 was > 100 µM (inactive).

What about the GI50 [28] of the same molecule?
Its GI50 is > 13.7 µM (inactive).

And the GI50 [29]?
The GI50 was > 21.1 µM (inactive).

What about the GI50 [30] of the same molecule?
Its GI50 is > 48.3 µM (inactive).

What about the GI50 [31] of the same molecule?
The GI50 was > 17.6 µM (inactive).

What about the GI50 [32] of the same molecule?
The GI50 was > 27.4 µM (inactive).

What about the GI50 [33] of the same molecule?
The GI50 was > 6.1 µM (inactive).

What about the GI50 [34] of the same molecule?
The GI50 was 29.9 µM (inactive).

And the GI50 [35]?
Its GI50 is > 13.1 µM (inactive).

What about the GI50 [36] of the same molecule?
Its GI50 is > 23.3 µM (inactive).

What about the GI50 [37] of the same molecule?
The GI50 was > 59.7 µM (inactive).

What about the GI50 [38] of the same molecule?
The GI50 was > 27 µM (inactive).

And the GI50 [39]?
Its GI50 is > 29.2 µM (inactive).

What about the GI50 [40] of the same molecule?
The GI50 was > 11.5 µM (inactive).

What about the GI50 [41] of the same molecule?
Its GI50 is > 24.7 µM (inactive).

What about the GI50 [42] of the same molecule?
Its GI50 is > 16.2 µM (inactive).

And the GI50 [43]?
Its GI50 is > 100 µM (inactive).

And the GI50 [44]?
Its GI50 is > 39.1 µM (inactive).

What about the GI50 [45] of the same molecule?
Its GI50 is > 32.9 µM (inactive).

And the GI50 [46]?
The GI50 was > 31.3 µM (inactive).

What about the GI50 [47] of the same molecule?
Its GI50 is > 32.8 µM (inactive).

What about the GI50 [48] of the same molecule?
The GI50 was > 30.4 µM (inactive).

And the GI50 [49]?
The GI50 was > 36 µM (inactive).

What about the GI50 [50] of the same molecule?
Its GI50 is > 36.6 µM (inactive).

What about the GI50 [51] of the same molecule?
Its GI50 is > 100 µM (inactive).

What about the GI50 [52] of the same molecule?
Its GI50 is > 100 µM (inactive).

What about the GI50 [53] of the same molecule?
The GI50 was > 16 µM (inactive).

What about the GI50 [54] of the same molecule?
Its GI50 is > 8.57 µM (inactive).

And the GI50 [55]?
Its GI50 is > 25.1 µM (inactive).

What about the GI50 [56] of the same molecule?
The GI50 was > 28 µM (inactive).

And the GI50 [57]?
The GI50 was > 19.1 µM (inactive).

And the GI50 [58]?
Its GI50 is > 34.8 µM (inactive).

And the GI50 [59]?
The GI50 was > 6.37 µM (inactive).

What does the source list for `CC1=NN(c2ccc(C)cc2)C2(C1)SCC(=O)N2c1nc2ccccc2s1` (stereo not drawn)?
GI50 [1]: 20.1 µM (inactive); GI50 [2]: 19.6 µM (inactive); GI50 [3]: 31.5 µM (inactive); GI50 [4]: 15.6 µM (inactive); GI50 [5]: 24.2 µM (inactive); GI50 [6]: 31 µM (inactive); GI50 [7]: 5.22 µM (inactive); GI50 [8]: 22.7 µM (inactive); GI50 [9]: 29.5 µM (inactive); GI50 [10]: 21.9 µM (inactive); GI50 [11]: 22.9 µM (inactive); GI50 [12]: 17.8 µM (inactive); GI50 [13]: 20.5 µM; GI50 [14]: 13.1 µM (inactive); GI50 [15]: 16.9 µM (inactive); GI50 [16]: 49.3 µM (inactive); GI50 [17]: 30.5 µM (inactive); GI50 [18]: 32.1 µM (inactive); GI50 [19]: 12.9 µM (inactive); GI50 [20]: 24.2 µM (inactive); GI50 [21]: 27 µM (inactive); GI50 [22]: 19.6 µM (inactive); GI50 [23]: 22.7 µM (inactive); GI50 [24]: 4.7 µM (inactive); GI50 [25]: 15.5 µM (inactive); GI50 [26]: 16.4 µM (inactive); GI50 [27]: 20.7 µM (inactive); GI50 [28]: 9.66 µM (inactive); GI50 [29]: 23.5 µM (inactive); GI50 [30]: 11.3 µM (inactive); GI50 [31]: 24 µM (inactive); GI50 [32]: 13.4 µM (inactive); GI50 [33]: 16.7 µM (inactive); GI50 [34]: 16.2 µM (inactive); GI50 [35]: 12.2 µM (inactive); GI50 [36]: 20.2 µM (inactive); GI50 [37]: 37.2 µM (inactive); GI50 [38]: 31.6 µM (inactive); GI50 [39]: 20.5 µM (inactive); GI50 [40]: 17.7 µM (inactive); GI50 [41]: 13.3 µM (inactive); GI50 [42]: 20.2 µM (inactive); GI50 [43]: 13 µM (inactive); GI50 [44]: 19 µM (inactive); GI50 [45]: 24.2 µM (inactive); GI50 [46]: 21.6 µM (inactive); GI50 [47]: 11.4 µM (inactive); GI50 [48]: 22.1 µM (inactive); GI50 [49]: 11.2 µM (inactive); GI50 [50]: 33.1 µM (inactive); GI50 [51]: 16.1 µM (inactive); GI50 [52]: 7.11 µM (inactive); GI50 [53]: 24.3 µM (inactive); GI50 [54]: 11.8 µM (inactive); GI50 [55]: 28 µM (inactive); GI50 [56]: 16.6 µM (inactive); GI50 [57]: 19.5 µM (inactive); GI50 [58]: 14.3 µM (inactive); GI50 [59]: 22.9 µM (inactive)
